In PubChem BioAssay (NCI):
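These data come from cells grown in 96-well plates and exposed to compound for 48 hours at five concentrations. Abbreviation: GI50, concentration required for 50% inhibition of growth. TGI: total growth inhibition.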

What was measured:
Experiment in all cases: NCI-60 cell line screen, 48 h
786-0 renal = tested on: 786-0 renal
A498 renal = tested on: A498 renal
A549 NSCLC = tested on: A549 NSCLC
ACHN renal = tested on: ACHN renal
BT-549 breast = tested on: BT-549 breast
CAKI-1 renal = tested on: CAKI-1 renal
CCRF-CEM leukemia = tested on: CCRF-CEM leukemia
COLO 205 colon = tested on: COLO 205 colon
DU-145 prostate = tested on: DU-145 prostate
EKVX NSCLC = tested on: EKVX NSCLC
HCC-2998 colon = tested on: HCC-2998 colon
HCT-116 colon = tested on: HCT-116 colon
HCT-15 colon = tested on: HCT-15 colon
HL-60(TB) leukemia = tested on: HL-60(TB) leukemia
HOP-62 NSCLC = tested on: HOP-62 NSCLC
HOP-92 NSCLC = tested on: HOP-92 NSCLC
HS 578T breast = tested on: HS 578T breast
HT29 colon = tested on: HT29 colon
IGROV1 ovarian = tested on: IGROV1 ovarian
KM12 colon = tested on: KM12 colon
M14 melanoma = tested on: M14 melanoma
MALME-3M melanoma = tested on: MALME-3M melanoma
MCF7 breast = tested on: MCF7 breast
MDA-MB-231 breast = tested on: MDA-MB-231 breast
MDA-MB-435 = tested on: MDA-MB-435
MOLT-4 leukemia = tested on: MOLT-4 leukemia
NCI-H226 lung = tested on: NCI-H226 lung
NCI-H23 lung = tested on: NCI-H23 lung
NCI-H460 lung = tested on: NCI-H460 lung
NCI-H522 lung = tested on: NCI-H522 lung
NCI/ADR-RES ovarian = tested on: NCI/ADR-RES ovarian
OVCAR-4 ovarian = tested on: OVCAR-4 ovarian
OVCAR-5 ovarian = tested on: OVCAR-5 ovarian
OVCAR-8 ovarian = tested on: OVCAR-8 ovarian
PC-3 prostate = tested on: PC-3 prostate
RPMI-8226 leukemia = tested on: RPMI-8226 leukemia
RXF 393 renal = tested on: RXF 393 renal
SF-268 CNS = tested on: SF-268 CNS
SF-295 CNS = tested on: SF-295 CNS
SF-539 CNS = tested on: SF-539 CNS
SK-MEL-2 melanoma = tested on: SK-MEL-2 melanoma
SK-MEL-28 melanoma = tested on: SK-MEL-28 melanoma
SK-MEL-5 melanoma = tested on: SK-MEL-5 melanoma
SK-OV-3 ovarian = tested on: SK-OV-3 ovarian
SN12C renal = tested on: SN12C renal
SNB-19 CNS = tested on: SNB-19 CNS
SNB-75 CNS = tested on: SNB-75 CNS
SR leukemia = tested on: SR leukemia
SW-620 colon = tested on: SW-620 colon
T-47D breast = tested on: T-47D breast
TK-10 renal = tested on: TK-10 renal
U251 CNS = tested on: U251 CNS
UACC-257 melanoma = tested on: UACC-257 melanoma
UACC-62 melanoma = tested on: UACC-62 melanoma
UO-31 renal = tested on: UO-31 renal

`C=CCN(C)S(=O)(=O)/N=C1\NC(=O)NC1=C(Cl)Cl` gave a GI50 (786-0 renal) of 2.39 µM, a TGI (786-0 renal) of 5.79 µM and a GI50 (A498 renal) of 12 µM. It also gave a TGI (A498 renal) of 24.6 µM, a GI50 (A549 NSCLC) of 5.27 µM and a TGI (A549 NSCLC) of 24 µM. The GI50 (ACHN renal) was 1.77 µM, the TGI (ACHN renal) was 3.18 µM and the GI50 (BT-549 breast) was 2.1 µM. It also gave a TGI (BT-549 breast) of 4.49 µM, a GI50 (CAKI-1 renal) of 1.72 µM and a TGI (CAKI-1 renal) of 3.15 µM. The GI50 (CCRF-CEM leukemia) was 1.94 µM, the TGI (CCRF-CEM leukemia) was 4.68 µM and the GI50 (COLO 205 colon) was 2.02 µM. It also gave a TGI (COLO 205 colon) of 4.37 µM, a GI50 (DU-145 prostate) of 4.08 µM and a TGI (DU-145 prostate) of 13.6 µM. It also gave a GI50 (EKVX NSCLC) of 1.82 µM, a TGI (EKVX NSCLC) of 3.64 µM and a GI50 (HCC-2998 colon) of 1.76 µM. For the same compound, the TGI (HCC-2998 colon) was 3.43 µM, the GI50 (HCT-116 colon) was 1.84 µM and the TGI (HCT-116 colon) was 3.55 µM. The GI50 (HCT-15 colon) was 1.63 µM, the TGI (HCT-15 colon) was 3.22 µM and the GI50 (HL-60(TB) leukemia) was 2.06 µM. The TGI (HL-60(TB) leukemia) was 5.31 µM, the GI50 (HOP-62 NSCLC) was 3.28 µM and the TGI (HOP-62 NSCLC) was 14.4 µM. The GI50 (HOP-92 NSCLC) was 1.76 µM, the TGI (HOP-92 NSCLC) was 3.4 µM and the GI50 (HS 578T breast) was 3.64 µM. It also gave a TGI (HS 578T breast) of 30.1 µM, a GI50 (HT29 colon) of 2.15 µM and a TGI (HT29 colon) of 4.87 µM. It also gave a GI50 (IGROV1 ovarian) of 1.84 µM, a TGI (IGROV1 ovarian) of 3.65 µM and a GI50 (KM12 colon) of 0.437 µM. It also gave a TGI (KM12 colon) of 25.6 µM, a GI50 (M14 melanoma) of 1.89 µM and a TGI (M14 melanoma) of 3.73 µM. For the same compound, the GI50 (MALME-3M melanoma) was 1.85 µM, the TGI (MALME-3M melanoma) was 3.58 µM and the GI50 (MCF7 breast) was 0.387 µM. For the same compound, the TGI (MCF7 breast) was over 100 µM, the GI50 (MDA-MB-231 breast) was 1.86 µM and the TGI (MDA-MB-231 breast) was 3.42 µM. For the same compound, the GI50 (MDA-MB-435) was 1.93 µM, the TGI (MDA-MB-435) was 3.86 µM and the GI50 (MOLT-4 leukemia) was 2.36 µM. For the same compound, the TGI (MOLT-4 leukemia) was 5.93 µM, the GI50 (NCI-H226 lung) was 2.09 µM and the TGI (NCI-H226 lung) was 4.63 µM. The GI50 (NCI-H23 lung) was 1.85 µM, the TGI (NCI-H23 lung) was 3.6 µM and the GI50 (NCI-H460 lung) was 2.71 µM. For the same compound, the TGI (NCI-H460 lung) was 7.1 µM, the GI50 (NCI-H522 lung) was 1.97 µM and the TGI (NCI-H522 lung) was 4.16 µM. The GI50 (NCI/ADR-RES ovarian) was 2.12 µM, the TGI (NCI/ADR-RES ovarian) was 4.91 µM and the GI50 (OVCAR-4 ovarian) was 1.82 µM. It also gave a TGI (OVCAR-4 ovarian) of 3.36 µM, a GI50 (OVCAR-5 ovarian) of 1.69 µM and a TGI (OVCAR-5 ovarian) of 3.13 µM. It also gave a GI50 (OVCAR-8 ovarian) of 2.33 µM, a TGI (OVCAR-8 ovarian) of 5.69 µM and a GI50 (PC-3 prostate) of 2.35 µM. The TGI (PC-3 prostate) was 6.2 µM, the GI50 (RPMI-8226 leukemia) was 0.404 µM and the TGI (RPMI-8226 leukemia) was 9.84 µM. The GI50 (RXF 393 renal) was 1.7 µM, the TGI (RXF 393 renal) was 3.37 µM and the GI50 (SF-268 CNS) was 3.17 µM. The TGI (SF-268 CNS) was 10.7 µM, the GI50 (SF-295 CNS) was 13.6 µM and the TGI (SF-295 CNS) was 26.7 µM. The GI50 (SF-539 CNS) was 1.79 µM, the TGI (SF-539 CNS) was 3.3 µM and the GI50 (SK-MEL-2 melanoma) was 2.9 µM. For the same compound, the TGI (SK-MEL-2 melanoma) was 7.76 µM, the GI50 (SK-MEL-28 melanoma) was 1.78 µM and the TGI (SK-MEL-28 melanoma) was 3.26 µM. It also gave a GI50 (SK-MEL-5 melanoma) of 2 µM, a TGI (SK-MEL-5 melanoma) of 4.21 µM and a GI50 (SK-OV-3 ovarian) of 17 µM. For the same compound, the TGI (SK-OV-3 ovarian) was 31 µM, the GI50 (SN12C renal) was 1.77 µM and the TGI (SN12C renal) was 3.29 µM. The GI50 (SNB-19 CNS) was 2.88 µM, the TGI (SNB-19 CNS) was 9.29 µM and the GI50 (SNB-75 CNS) was 1.82 µM. For the same compound, the TGI (SNB-75 CNS) was 13.1 µM, the GI50 (SR leukemia) was 0.693 µM and the TGI (SR leukemia) was 6.68 µM. The GI50 (SW-620 colon) was 1.9 µM, the TGI (SW-620 colon) was 3.72 µM and the GI50 (T-47D breast) was 3.25 µM. For the same compound, the TGI (T-47D breast) was over 100 µM, the GI50 (TK-10 renal) was 9.07 µM and the TGI (TK-10 renal) was over 100 µM. It also gave a GI50 (U251 CNS) of 1.87 µM, a TGI (U251 CNS) of 4.05 µM and a GI50 (UACC-257 melanoma) of 3.56 µM. It also gave a TGI (UACC-257 melanoma) of 17 µM, a GI50 (UACC-62 melanoma) of 1.75 µM and a TGI (UACC-62 melanoma) of 3.39 µM. For the same compound, the GI50 (UO-31 renal) was 2.82 µM and the TGI (UO-31 renal) was 11.9 µM.
